Test results published in patent US20240245660A1, “METHODS OF TREATING GASTROINTESTINAL STROMAL TUMORS” (Deciphera Pharmaceuticals, LLC, priority 2022, published 2024).

Tests used:
[1] = test system: GISTs with KIT exon 11 primary mutations; details: cited from earlier work
[2] = test system: advanced gastrointestinal stromal tumor (GIST); assay: Multicenter, global, randomized, open-label, phase 3 study of ripretinib versus sunitinib with baseline ctDNA analysis (Examples 1 and 5); type: in vivo, human; details: for forest plot of PFS by KIT exon 11 mutational subgroups from baseline ctDNA: FIG. 10; for forest plot of OS by KIT exon 11 mutational subgroups from baseline ctDNA / forest plot of OS by KIT mutational status from baseline ctDNA: Interim Analysis 2; for forest plot of OS by KIT exon 11 mutational subgroups from baseline ctDNA: FIG. 14; for forest plot of ORR by KIT exon 11 mutational subgroups from baseline ctDNA: FIG. 12; for forest plot of OS by KIT mutational status from baseline ctDNA: FIG. 13; for median PFS by IRR: KIT mutations at exon 17/18, excluding KIT exons 9, 13, and/or 14, FIG. 4; for forest plot of PFS by KIT mutational status from baseline ctDNA: FIG. 9; for Median Progression-Free Survival (mPFS): patients with mutations in KIT exon 11 and 17 or 18 only (ctDNA; excluding exons 9, 13, 14), by IRR, ripretinib 150 mg QD or sunitinib 50 mg QD; for forest plot of ORR by KIT mutational status from baseline ctDNA: FIG. 11; for OS HR, ripretinib versus sunitinib (Cox model) / PFS HR, ripretinib versus sunitinib (Cox model): sex, and race
Protocol: This study is a multicenter, global, randomized, open-label, phase 3 study which enrolled adult patients with advanced gastrointestinal stromal tumor (GIST) who progressed on or had intolerance to imatinib. Randomization was 1:1 to ripretinib 150 mg once daily (QD) or sunitinib 50 mg once daily (QD) (4 weeks on/2 weeks off). Baseline peripheral whole blood was analyzed by Guardant360, a 74-gene circulating tumor DNA (ctDNA) next-generation sequencing (NGS)-based assay.
Of the 453 patients in the overall intent-to-treat population (ITT), baseline ctDNA analysis was performed in 362 patients for whom evaluable samples were available. ctDNA was detected in 280 samples and KIT mutations were detected in 213 patients. Primary mutations in KIT were detected in exon 11 in 157 patients and in exon 9 in 36 patients. Common resistance mutations in KIT were in exons 17/18 in 89 patients and exons 13/14 in 81 patients. In patients with a KIT exon 11 primary mutation, 52 patients had mutations in exon 17 or 18 only, 41 had mutations in exon 13 or 14 only, and 22 patients had mutations in both exon 13 or 14 and exon 17 or 18. […] Efficacy in patients with detectable ctDNA in KIT exon 11 and the ITT populations was consistent with the primary analysis based on tumor data used for randomization. The subgroup safety profiles were consistent with the primary analysis.
Cox proportional hazards analyses of PFS and OS were conducted to examine the interaction of treatment arm and mutational subgroup with or without adjustment for baseline characteristics in the study of Example 1.
(§1) With respect to PFS, a Cox model with the interaction effect was used and the Bonferroni adjustment was applied. […] The treatment effect was nominally significant in the KIT exon 11+13/14 and KIT exon 11+17/18 populations before and after performing the Bonferroni correction. […] The results were robust when accounting for multiple treatment comparisons across mutational subgroups.
as §1, with “OS,” for “PFS,”, “exon” for “exon 11+13/14 and KIT exon”, “population” for “populations”, “correction, but not in the KIT exon 11+13/14 population.” for “correction.”

[3] = test system: gastrointestinal stromal tumors (GIST); assay: Bridging study of second-line ripretinib versus sunitinib in GIST patients in China (Example 3); type: in vivo, human; details: patients in China with KIT exon 11 and exon 17/18 mutations per tumor tissue ITT population; ripretinib 150 mg once daily or sunitinib 50 mg once daily; FIG. 16
Protocol: Results from a bridging study, with respect to the study of Example 1 above, of second-line administration of 150 mg once daily ripretinib, as compared to administration of 50 mg once daily sunitinib, in gastrointestinal stromal tumors (GIST) patients in China were obtained. In the study, 21 patients were determined to have mutations at KIT exon 11 and exon 17/18 per the tumor tissue ITT population. Progression-free survival (PFS) was determined with independent radiologic review using mRECIST. A Kaplan-Meier plot of PFS is provided as FIG. 16.

[4] = KIT exon 11 and 17 or 18 only (ctDNA), Data cut 1
[5] = KIT exon 11 and 17 or 18 only (ctDNA), Data cut 2
[6] = KIT exon 11 and exon 17/18, excluding exons 9, 13, and/or 14, extended interim analysis (Interim Analysis 2), FIG. 6
[7] = KIT exon 11 and exon 17/18, excluding exons 9, 13, and/or 14, interim analysis (Interim Analysis 1), FIG. 5
[8] = KIT exon 17/18, excluding exons 9, 13, and/or 14, extended interim analysis (Interim Analysis 2), FIG. 8
[9] = KIT exon 17/18, excluding exons 9, 13, and/or 14, interim analysis (Interim Analysis 1), FIG. 7
[10] = with adjustment for age, Any KIT exon 9 (n = 36)
[11] = with adjustment for age, KIT exon 11 + 13/14 + 17/18 only (n = 22)
[12] = with adjustment for age, KIT exon 11 + 13/14 only (n = 41)
[13] = with adjustment for age, KIT exon 11 + 17/18 only (n = 52)
[14] = with adjustment for age, KIT exon 11 only (n = 41)
[15] = with adjustment for age, Other KIT/PDGFRA (n = 29)
[16] = without adjustment for age, Any KIT exon 9 (n = 36)
[17] = without adjustment for age, KIT exon 11 + 13/14 + 17/18 only (n = 22)
[18] = without adjustment for age, KIT exon 11 + 13/14 only (n = 41)
[19] = without adjustment for age, KIT exon 11 + 17/18 only (n = 52)
[20] = without adjustment for age, KIT exon 11 only (n = 41)
[21] = without adjustment for age, Other KIT/PDGFRA (n = 29)

Cc1ccc(NC(=O)c2ccc(CN3CCN(C)CC3)cc2)cc1Nc1nccc(-c2cccnc2)n1 [imatinib]
2-year relapse-free survival ([1]; adjuvant setting): ~90%
median event-free survival ([1]; metastatic setting): under 2 years

CCn1c(=O)c(-c2cc(NC(=O)Nc3ccccc3)c(F)cc2Br)cc2cnc(NC)cc21 [ripretinib]
forest plot of PFS by KIT exon 11 mutational subgroups from baseline ctDNA ([2]; KIT exon 11 and 17 only, exon 11 and 18 only, any exons 11 and 17, any exon 11 and exon 17 or 18): favor ripretinib treatment
ORR [2, 4]: 44.4%
ORR Response Difference (95% CI), ripretinib versus sunitinib [2, 4]: 44.4% (23.0%, 62.7%)
PFS Hazard Ratio (95% CI), ripretinib versus sunitinib [2, 4]: 0.22 (0.11, 0.44)
ORR ([2]; KIT exon 11 and 17 or 18 only (ctDNA), Data cut 1, listed as Ripretinib): 44.4%
OS [2, 5]: Not Estimable
OS Hazard Ratio (95% CI), ripretinib versus sunitinib [2, 5]: 0.34 (0.15, 0.76)
forest plot of OS by KIT exon 11 mutational subgroups from baseline ctDNA ([2]; KIT exon 11 and 17 or KIT exon 11 and 18 mutations): favors ripretinib treatment
median OS [2, 6]: not estimable
median OS [2, 7]: not estimable
forest plot of ORR by KIT exon 11 mutational subgroups from baseline ctDNA ([2]; KIT exon 11 in combination with KIT exon 17 or 18 mutations): favors ripretinib treatment
PFS, ORR and OS versus sunitinib ([2]; KIT exon 11 only primary mutation and exon 17 or 18 secondary mutations only): superior
median OS [2, 8]: not evaluable
median OS [2, 9]: not evaluable
forest plot of OS by KIT mutational status from baseline ctDNA ([2]; KIT exon 17 and 18 mutations): favors ripretinib treatment
median PFS by IRR [2]: 13.8 months
forest plot of PFS by KIT mutational status from baseline ctDNA ([2]; mutations in KIT exons 17 and 18): favor ripretinib treatment
Median Progression-Free Survival (mPFS) ([2]; Data cut 1): 14.2 months
forest plot of ORR by KIT mutational status from baseline ctDNA ([2]; populations with KIT exons 11, 17 or 18): favors ripretinib treatment
OS HR, ripretinib versus sunitinib (Cox model) [2, 10]: 1.33
PFS HR, ripretinib versus sunitinib (Cox model) [2, 10]: 3.07
OS HR, ripretinib versus sunitinib (Cox model) [2, 11]: 2.09
PFS HR, ripretinib versus sunitinib (Cox model) [2, 11]: 0.96
OS HR, ripretinib versus sunitinib (Cox model) [2, 12]: 1.91
PFS HR, ripretinib versus sunitinib (Cox model) [2, 12]: 3.27
OS HR, ripretinib versus sunitinib (Cox model) [2, 13]: 0.34
PFS HR, ripretinib versus sunitinib (Cox model) [2, 13]: 0.21
OS HR, ripretinib versus sunitinib (Cox model) [2, 14]: 1.55
PFS HR, ripretinib versus sunitinib (Cox model) [2, 14]: 2.54
OS HR, ripretinib versus sunitinib (Cox model) [2, 15]: 0.63
PFS HR, ripretinib versus sunitinib (Cox model) [2, 15]: 0.97
OS HR, ripretinib versus sunitinib (Cox model) [2, 16]: 1.32
PFS HR, ripretinib versus sunitinib (Cox model) [2, 16]: 2.88
OS HR, ripretinib versus sunitinib (Cox model) [2, 17]: 2.15
PFS HR, ripretinib versus sunitinib (Cox model) [2, 17]: 0.98
OS HR, ripretinib versus sunitinib (Cox model) [2, 18]: 1.88
PFS HR, ripretinib versus sunitinib (Cox model) [2, 18]: 3.41
OS HR, ripretinib versus sunitinib (Cox model) [2, 19]: 0.32
PFS HR, ripretinib versus sunitinib (Cox model) [2, 19]: 0.22
OS HR, ripretinib versus sunitinib (Cox model) [2, 20]: 1.64
PFS HR, ripretinib versus sunitinib (Cox model) [2, 20]: 2.53
OS HR, ripretinib versus sunitinib (Cox model) [2, 21]: 0.78
PFS HR, ripretinib versus sunitinib (Cox model) [2, 21]: 1.02
median PFS (independent radiologic review using mRECIST) [3]: not reached

CCN(CC)CCNC(=O)c1c(C)[nH]c(/C=C2\C(=O)Nc3ccc(F)cc32)c1C [sunitinib, reference compound]
forest plot of ORR by KIT mutational status from baseline ctDNA ([2]; KIT exon 9 mutations): favors sunitinib treatment
forest plot of OS by KIT exon 11 mutational subgroups from baseline ctDNA ([2]; KIT exon 11 and 13 or KIT exon 11 and 14 mutations): favors sunitinib treatment
ORR [2, 4]: 0%
ORR ([2]; KIT exon 11 and 17 or 18 only (ctDNA), Data cut 1, listed as Sunitinib): 0%
OS [2, 5]: 17.5 months
median OS [2, 6]: 17.5 months
median OS [2, 7]: 16.9 months
forest plot of ORR by KIT exon 11 mutational subgroups from baseline ctDNA ([2]; KIT exon 11 in combination with KIT exon 13 only): favors sunitinib treatment
forest plot of OS by KIT mutational status from baseline ctDNA ([2]; KIT exon 13 and 14 mutations): favors sunitinib treatment
median OS [2, 8]: 17.5 months
median OS [2, 9]: 17.0 months
median PFS by IRR [2]: 2.8 months
forest plot of PFS by KIT exon 11 mutational subgroups from baseline ctDNA ([2]; exon 11 mutations in combination with exon 13 or exon 14 mutations): favor sunitinib
forest plot of PFS by KIT mutational status from baseline ctDNA ([2]; mutations in KIT exons 9, 13, and 14): favor sunitinib
Median Progression-Free Survival (mPFS) ([2]; Data cut 1): 1.5 months
median PFS (independent radiologic review using mRECIST) [3]: 6.7 months
